Article PMC4520264 (Organic & biomolecular chemistry, 2015)

Key:
Type in all cases: binding
[1] = target: R1 (scFv fluorescence-activating protein, FAP); test: fluorescence; details: read-out: Coumarin-TO
[2] = target: HL1.0.1-TO1 (scFv fluorescence-activating protein, FAP); test: fluorescence ligand depletion titration with […] FAP; details: read-out: TO1-2p
[3] = target: R1 (scFv fluorescence-activating protein, FAP); test: fluorescence ligand depletion titration with […] R1; details: read-out: TO
[4] = target: HL1.0.1-TO1 (scFv fluorescence-activating protein, FAP); test: fluorescence; details: read-out: TO1-2p-Cy5

## coumarin-TO
[1]
  Kd: 1.1 nM

## TO1-2p
[2]
  Kd: 0.3 nM

## CN1/C(=C/c2cc[n+](C)c3ccccc23)Sc2ccccc21 [TO]
[3]
  Kd: 0.17 nM

## TO1-2p-Cy5
[4]
  Kd: 12 nM
